From US20030232994A1, “Bicyclic thiophene derivatives and combinatorial libraries thereof” (priority 2001, published 2003) come the findings set out here.

This assay deals with Streptococcus pyogenes (ATCC# 97-03 14289). Put plainly: Anti-microbial screen (growth inhibition, OD 570 nm). In kind it is cell-based. The conditions noted are these: growth in Todd Hewitt Broth, plates read at 570 nm at 0 time and 4 hours, color corrected. The protocol:
Streptococcus pyogenes (ATCC# 97-03 14289) was grown in Todd Hewitt Broth (THB) (Difco Laboratories #0492-17-6) overnight until reaching an optical density of (OD=0.636 @ 570 nm) by reading 0.1 ml in a 96 well microtiter plate in a Molecular Devices Thermomax. This preparation was kept frozen as stocks in 30% v/v glycerol in 1.5 ml aliquots at −70^mC. until use. Prior to experiments, […] aliquots were thawed and diluted into 50 ml 2×THB. 60 ul of this dilution was added to 92 wells of microtiter plate. To three wells THB (200 ul) was added to serve as a blank and a sterility control. Test compounds in DMSO and appropriate concentrations of DMSO were added to Growth/Solvent Controls at 0 time. Plates were read at 0 time at 570 nm in the Molecular Devices plate reader to obtain compounds correction factors for insoluble or colored compounds. Plates were read again at 4 hours.
Percent inhibition is calculated with the following formulae: [drawing 4]
Color correct=O.D. 0 hr−Blank 0 hr)−(Solvent Control 0 hr−Blank 0 hr)
% Inhibition=100−O.D. test compound 4 hr−Blank 4 hr−color correct O.D. growth/solvent control 4 hr−Blank 4 hr
As a reminder, the % Inhibition is the change of the read-out against control, counted positive when it falls. The low end stands for a weak effect, the high end for a strong effect. As to `CC(=O)Nc1cccc(C(=O)N2CCc3c(sc(NC(=O)c4ccc(C(C)(C)C)cc4)c3C(=O)O)C2)c1`, the “% Inhibition” value is reported as 92.01%.

As for `COc1cccc(C(=O)N2CCc3c(sc(NC(=O)c4ccc(Cl)cc4)c3C(=O)O)C2)c1OC`, the “% Inhibition” value is 77.82%.

For the molecule `CSc1ncccc1C(=O)N1CCc2c(sc(NC(=O)c3ccccc3Cl)c2C(=O)O)C1`, the “% Inhibition” value was found to be 60.53%.

`COc1cccc(C(=O)Nc2sc3c(c2C(=O)O)CCN(C(=O)c2cc4ccccc4s2)C3)c1`: the “% Inhibition” value was found to be 63.77%.

Turning to `CC(C)CC(=O)N1CCc2c(sc(NC(=O)c3ccc(Cl)cc3)c2C(=O)O)C1`, the “% Inhibition” value stood at 84.68%.

Regarding `CCc1ccc(C(=O)Nc2sc3c(c2C(=O)O)CCN(C(=O)C2CCC2)C3)cc1`, the “% Inhibition” value turned out to be 65.14%.

Take `CC(C)(C)c1ccc(C(=O)Nc2sc3c(c2C(=O)O)CCN(C(=O)CC2CCCC2)C3)cc1`: the “% Inhibition” value is recorded as 79.23%.

Consider `O=C(O)c1c(NC(=O)C2CCCCC2)sc2c1CCN(C(=O)CCc1ccc(F)c(F)c1)C2`, for which the “% Inhibition” value worked out at 66.79%.

On to `CCCSc1ncccc1C(=O)N1CCc2c(sc(NC(=O)c3ccccc3OC)c2C(=O)O)C1`, for which the “% Inhibition” value was 61.59%.

As to `Cc1c(F)cccc1C(=O)N1CCc2c(sc(NC(=O)c3ccco3)c2C(=O)O)C1`, the “% Inhibition” value was found to be 72.33%.

As for `CCCc1ccc(C(=O)Nc2sc3c(c2C(=O)O)CCN(C(=O)c2ccc(F)c(F)c2)C3)cc1`, the “% Inhibition” value amounted to 86.71%.

Regarding `O=C(Nc1sc2c(c1C(=O)O)CCN(C(=O)c1ccco1)C2)c1ccccc1`, the “% Inhibition” value is 96.39%.

As to `O=C(Nc1sc2c(c1C(=O)O)CCN(C(=O)C1CCCCC1)C2)c1ccc(Cl)cc1`, the “% Inhibition” value is given as 72.46%.

With `COc1ccc(OC)c(C(=O)N2CCc3c(sc(NC(=O)c4ccc(Cl)cc4)c3C(=O)O)C2)c1`, the “% Inhibition” value is recorded as 70.67%.

As to `CCCc1ccc(C(=O)Nc2sc3c(c2C(=O)O)CCN(C(=O)c2cccc(F)c2C)C3)cc1`, the “% Inhibition” value amounted to 99.63%.

As to `COc1cccc(C(=O)N2CCc3c(sc(NC(=O)C4CCCCC4)c3C(=O)O)C2)c1OC`, the “% Inhibition” value came out at 61.06%.

Regarding `CSc1ccccc1C(=O)N1CCc2c(sc(NC(=O)c3ccc(Cl)cc3)c2C(=O)O)C1`, the “% Inhibition” value is listed as 71.86%.

Regarding `COc1cccc(C(=O)Nc2sc3c(c2C(=O)O)CCN(C(=O)c2cccc(F)c2C)C3)c1`, the “% Inhibition” value amounted to 73.59%.

Turning to `Cc1ccc(C(=O)N2CCc3c(sc(NC(=O)c4ccccc4)c3C(=O)O)C2)cn1`, the “% Inhibition” value was determined as 82.41%.

For `CC(C)(C)c1ccc(C(=O)Nc2sc3c(c2C(=O)O)CCN(C(=O)c2ccc(F)cc2F)C3)cc1`, the “% Inhibition” value was 86.77%.

Regarding `Cc1ccccc1C(=O)N1CCc2c(sc(NC(=O)c3ccccc3)c2C(=O)O)C1`, the “% Inhibition” value is given as 80.08%.

`CCCSc1ncccc1C(=O)N1CCc2c(sc(NC(=O)c3ccc(CC)cc3)c2C(=O)O)C1`: the “% Inhibition” value was determined as 92.01%.

Regarding `CCC(=O)N1CCc2c(sc(NC(=O)C(CC)c3ccccc3)c2C(=O)O)C1` (stereo not shown), the “% Inhibition” value amounted to 60.7%.

Take `CCc1ccc(C(=O)Nc2sc3c(c2C(=O)O)CCN(C(=O)c2ccc(C)cc2C)C3)cc1`: the “% Inhibition” value is reported as 85.78%.

Consider `CC(C)(C)c1ccc(C(=O)Nc2sc3c(c2C(=O)O)CCN(C(=O)c2cccc4ccccc24)C3)cc1`, for which the “% Inhibition” value amounted to 73%.

Turning to `CCOc1ncccc1C(=O)N1CCc2c(sc(NC(=O)c3ccccc3)c2C(=O)O)C1`, the “% Inhibition” value was determined as 95.92%.

Turning to `Cc1ccccc1C(=O)N1CCc2c(sc(NC(=O)CCC3CCCC3)c2C(=O)O)C1`, the “% Inhibition” value stood at 76.07%.

Turning to `COc1cccc(C(=O)Nc2sc3c(c2C(=O)O)CCN(C(=O)c2ccccc2C)C3)c1`, the “% Inhibition” value was 74.32%.

On to `Cc1c(F)cccc1C(=O)N1CCc2c(sc(NC(=O)c3ccc(Cl)cc3)c2C(=O)O)C1`, for which the “% Inhibition” value stood at 78.42%.

On to `O=C(CCC1CCCC1)Nc1sc2c(c1C(=O)O)CCN(C(=O)c1cccc3ccccc13)C2`, for which the “% Inhibition” value was 82.49%.

In the case of `COc1ccccc1C(=O)Nc1sc2c(c1C(=O)O)CCN(C(=O)c1cccc(F)c1C)C2`, the “% Inhibition” value is reported as 63.41%.

On to `O=C(Nc1sc2c(c1C(=O)O)CCN(C(=O)CCc1ccc(F)c(F)c1)C2)c1ccccc1`, for which the “% Inhibition” value is given as 74.96%.

On to `CCCc1ccc(C(=O)Nc2sc3c(c2C(=O)O)CCN(C(=O)c2ccc(Cl)cc2OC)C3)cc1`, for which the “% Inhibition” value is listed as 67.49%.

Turning to `O=C(Nc1sc2c(c1C(=O)O)CCN(C(=O)c1ccc(Cl)cc1)C2)c1ccccc1Cl`, the “% Inhibition” value came out at 72.75%.

As to `CCCc1ccc(C(=O)Nc2sc3c(c2C(=O)O)CCN(C(=O)c2cc(OC)ccc2OC)C3)cc1`, the “% Inhibition” value was 60.54%.

As for `CCCSc1ncccc1C(=O)N1CCc2c(sc(NC(=O)c3ccccc3)c2C(=O)O)C1`, the “% Inhibition” value is 86.6%.

In the case of `COc1cccc2cc(C(=O)N3CCc4c(sc(NC(=O)c5ccccc5)c4C(=O)O)C3)oc12`, the “% Inhibition” value worked out at 76.35%.

Regarding `CC(CC(=O)Nc1sc2c(c1C(=O)O)CCN(C(=O)c1cccc3ccccc13)C2)CC(C)(C)C` (stereo not shown), the “% Inhibition” value was 68.89%.

For the molecule `Cc1c(F)cccc1C(=O)N1CCc2c(sc(NC(=O)c3ccccc3Cl)c2C(=O)O)C1`, the “% Inhibition” value stood at 62.62%.

For the molecule `CCc1ccc(C(=O)Nc2sc3c(c2C(=O)O)CCN(C(=O)c2ccc(Cl)cc2)C3)cc1`, the “% Inhibition” value was 74.97%.

Turning to `Cc1ccsc1C(=O)N1CCc2c(sc(NC(=O)c3ccccc3)c2C(=O)O)C1`, the “% Inhibition” value is recorded as 93.13%.

Take `CSc1ncccc1C(=O)N1CCc2c(sc(NC(=O)c3ccc4ccccc4c3)c2C(=O)O)C1`: the “% Inhibition” value stood at 64.54%.

In the case of `CCOc1ncccc1C(=O)N1CCc2c(sc(NC(=O)c3ccc(CC)cc3)c2C(=O)O)C1`, the “% Inhibition” value amounted to 67.76%.

`O=C(Nc1sc2c(c1C(=O)O)CCN(C(=O)c1ccc(C(F)(F)F)cc1)C2)c1ccc2ccccc2c1`: the “% Inhibition” value is on record as 63.29%.

`COc1cc(Cl)ccc1C(=O)N1CCc2c(sc(NC(=O)c3ccccc3)c2C(=O)O)C1`: the “% Inhibition” value is 81.48%.

Consider `CC(=O)Nc1cccc(C(=O)N2CCc3c(sc(NC(=O)c4ccccc4Cl)c3C(=O)O)C2)c1`, for which the “% Inhibition” value came to 72.75%.

Consider `CSc1ccccc1C(=O)N1CCc2c(sc(NC(=O)CC(C)CC(C)(C)C)c2C(=O)O)C1` (stereo not shown), for which the “% Inhibition” value is given as 95.62%.

For the molecule `CCc1ccc(C(=O)Nc2sc3c(c2C(=O)O)CCN(C(=O)c2ccccc2Cl)C3)cc1`, the “% Inhibition” value was 77.92%.

With `CCC(C(=O)Nc1sc2c(c1C(=O)O)CCN(C(=O)/C=C/c1ccc(Cl)cc1)C2)c1ccccc1` (stereo not shown), the “% Inhibition” value was 82.18%.

As for `O=C(CCC1CCCC1)Nc1sc2c(c1C(=O)O)CCN(C(=O)c1ccccc1C(F)(F)F)C2`, the “% Inhibition” value stood at 72.86%.

Consider `O=C(Nc1sc2c(c1C(=O)O)CCN(C(=O)c1cc3ccccc3s1)C2)c1ccccc1`, for which the “% Inhibition” value is recorded as 67.5%.

On to `O=C(Nc1sc2c(c1C(=O)O)CCN(C(=O)c1cccc3ccccc13)C2)c1ccccc1`, for which the “% Inhibition” value is 83.81%.

For `O=C(Nc1sc2c(c1C(=O)O)CCN(C(=O)/C=C/c1ccc(Cl)cc1)C2)c1ccccc1Cl`, the “% Inhibition” value turned out to be 68.58%.

In the case of `O=C(O)c1c(NC(=O)[C@]23C[C@H]4C[C@@H](C[C@H](C4)C2)C3)sc2c1CCN(C(=O)c1ccccc1C(F)(F)F)C2`, the “% Inhibition” value came out at 64.79%.

On to `O=C(Nc1sc2c(c1C(=O)O)CCN(C(=O)c1ccsc1)C2)c1ccccc1`, for which the “% Inhibition” value stood at 93.59%.
